For four compounds, ED50 results are on record in patent US4265904A, “Prostacyclin analogs of the 1 series and related analogs” (American Cyanamid Company, priority 1979, dated 1981).

Holding throughout (assay type): in vivo, guinea pigs
The test system of test [1] is bronchospasms elicited by 5-hydroxytryptamine. Briefly: Bronchodilator activity against bronchospasm elicited by intravenous 5-hydroxytryptamine, Konzett procedure. The following applies: Cavia porcellus; guinea pig, 5-hydroxytryptamine spasmogen, three logarithmic cumulative intravenous doses; read-out: ED50 5HT. On the procedure:
(§1) The compounds of this invention are useful as bronchodilators for the treatment of asthma and chronic bronchitis. Bronchodilator activity is determined in guinea pigs against bronchospasms elicited by intravenous injections of 5-hydroxytryptamine, histamine or acetylcholine by the Konzett procedure. [See J. Lulling, P. Lievens, F. El Sayed and J. Prignot, Arzneimittel-Forschung, 18, 995 (1968).]
(§2) In Table which follows bronchodilator activity for representative compounds of this invention against one or more of three spasmogenic agents is expressed as an ED50 determined from the results obtained with three logarithmic cummulative intravenous doses. In this assay, these compounds of this invention provide an effect of longer duration than does natural l-PGE1 or l-PGE2.

Test [2] relates to bronchospasms elicited by histamine. Briefly: Bronchodilator activity against bronchospasm elicited by intravenous histamine, Konzett procedure. The following applies: Cavia porcellus; guinea pig, histamine spasmogen, three logarithmic cumulative intravenous doses. On the procedure:
as §1, §2

For test [3], the system named is bronchospasms elicited by acetylcholine. Briefly: Bronchodilator activity against bronchospasm elicited by intravenous acetylcholine, Konzett procedure. The following applies: Cavia porcellus; guinea pig, acetylcholine spasmogen, three logarithmic cumulative intravenous doses. On the procedure: as §1, §2

The structures appear in SMILES notation.

In general, ED50 refers to the dose that gives a 50% effect, or the effect in half of the subjects.

On to `C=CC(O)(C/C=C/[C@@H]1[C@H]2CC(CCCCC(=O)OC)O[C@H]2C[C@H]1O)CCCC` (relative stereo) [dl 11α,16-Dihydroxy-6,9α-epoxy-16-vinyl-13-trans-prostenoic acid methyl ester], for which the ED50 in test [1] amounted to 0.0367 mg/kg; in test [2], 0.0254 mg/kg; in test [3], 0.0491 mg/kg.
With `CCCCC(C)(O)C/C=C/[C@@H]1[C@H]2CC(CCCCC(=O)OC)O[C@H]2C[C@H]1O` (relative stereo) [dl 11α,16-Dihydroxy-6,9α-epoxy-16-methyl-13-trans-prostenoic acid methyl ester], the values for the median effective dose (ED50) in test [1], in test [2] and in test [3] were 0.0925 mg/kg, 0.111 mg/kg and 0.146 mg/kg, respectively.
The matching figures for `CCCCC(C)(O)C/C=C/[C@@H]1[C@H]2CC(C(I)CCCC(=O)OC)O[C@H]2C[C@H]1O` (relative stereo) [dl 11α,16-Dihydroxy-6,9α-epoxy-5-iodo-16-methyl-13-trans-prostenoic acid methyl ester]: 0.004 mg/kg, 0.0069 mg/kg and 0.0065 mg/kg.
With `C=CC(O)(C/C=C/[C@@H]1[C@H]2CC(CCCCC(=O)CO)O[C@H]2C[C@H]1O)CCCC` (relative stereo) [11a, 16-Dihydroxy-6,9a (epoxy)-1-hydroxymethyl-1-oxo-16-vinyl-13-trans-prostene], the ED50 in test [1] came out at 0.0276 mg/kg; in test [2] it was 0.00146 mg/kg; in test [3], 0.0032 mg/kg.
